In ChEMBL document CHEMBL1130593, “The importance of GLU361 position in the reaction catalyzed by cholesterol oxidase” (Bioorg Med Chem Lett, 1998) one finds Km and k cat data, which are given here for two molecules.

The term Km denotes the concentration of substrate that gives half-maximal velocity.

Assay [1] deals with Streptomyces. Briefly: Steady-state kinetic parameter on wild-type cholesterol oxidase.
Assay [2] deals with Streptomyces. Briefly: Steady-state kinetic parameter on E361D mutant cholesterol oxidase.

As to `CC(C)CCC[C@@H](C)[C@H]1CC[C@H]2[C@@H]3CC=C4C[C@@H](O)CC[C@]4(C)[C@H]3CC[C@]12C`, in the assay with Streptomyces [1], the Km came to 3 µM and the k cat amounted to 44 s⁻¹. In addition, in the assay on Streptomyces [2], the Km was determined as 0.6 µM and the k cat was determined as 4.2 s⁻¹.

For the molecule `CC(C)CCC[C@@H](C)[C@H]1CC[C@H]2[C@@H]3CC=C4CC(=O)CC[C@]4(C)[C@H]3CC[C@]12C`, in the assay on Streptomyces [1], the Km came to 6.2 µM and the k cat amounted to 64 s⁻¹. Besides, in the assay with Streptomyces [2], the Michaelis-Menten constant (Km) amounted to 1.4 µM and the k cat came to 0.2 s⁻¹.
